Test results reported in patent publication US7879887B2, “α-amino acid derivatives and medicaments containing the same as an active ingredient” (Nissan Chemical Industries, Ltd., priority 2006, dated 2011).

What was measured:
recombinant human βARK1 = target: T1, recombinant human βARK1 (Homo sapiens, UniProt P25098); test: Inhibitory activity against βARK1 (33P phosphorylation of synthetic peptide); format: biochemical; conditions: recombinant human βARK1, 60 minutes at room temperature
T1 construct: made in house; host or cells: Sf-9 insect cells (baculovirus, pBacPAK8)
T1 sequence (P25098 1-689): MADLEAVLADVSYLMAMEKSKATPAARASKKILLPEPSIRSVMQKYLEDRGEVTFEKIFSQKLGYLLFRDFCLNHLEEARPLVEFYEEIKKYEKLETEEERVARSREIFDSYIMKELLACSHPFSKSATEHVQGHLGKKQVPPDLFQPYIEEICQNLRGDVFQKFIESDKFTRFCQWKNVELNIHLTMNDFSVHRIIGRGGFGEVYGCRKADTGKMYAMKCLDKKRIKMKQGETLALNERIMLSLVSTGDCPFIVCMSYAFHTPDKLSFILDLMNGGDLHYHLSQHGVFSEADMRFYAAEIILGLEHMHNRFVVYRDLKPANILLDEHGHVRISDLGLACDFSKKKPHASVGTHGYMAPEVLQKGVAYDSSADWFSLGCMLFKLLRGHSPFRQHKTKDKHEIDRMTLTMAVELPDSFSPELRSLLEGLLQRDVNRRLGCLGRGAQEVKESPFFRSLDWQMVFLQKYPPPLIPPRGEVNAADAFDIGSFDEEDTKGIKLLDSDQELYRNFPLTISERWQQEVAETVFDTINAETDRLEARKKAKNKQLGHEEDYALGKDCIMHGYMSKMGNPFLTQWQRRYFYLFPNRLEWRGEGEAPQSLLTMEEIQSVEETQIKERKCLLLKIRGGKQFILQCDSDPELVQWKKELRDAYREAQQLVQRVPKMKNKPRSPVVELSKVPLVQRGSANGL
Procedure: Human βARK1 was amplified by PCR based on the base sequence of human βARK1 mRNA registered in GenBank (Accession No. M80776) using a human leukocyte cDNA library (Gibco BRL Cat. No. 10421-022) as a template. The amplified cDNA fragment was inserted into a pBacPAK8 vector (Clontech) to construct a plasmid.
Recombinant human βARK1 was expressed using the BacPAK Baculovirus Expression System (Clontech, Cat. No. K1601-1). 1×10^6 Sf-9 cells were adhered to a 35 mm dish in 2.5 mL of TMN-FH Insect Medium containing 10 vol % FBS (Pharminogen, Cat. No. PM-21227M) and cultured overnight at 27° C. On the following day, the medium was removed and 500 ng of the above plasmid, BacPAK6 viral DNA cleaved with Bsu36I (5 μL) and 1.5 mL of the same medium mixed with 4 μL of Bacfectin were added followed by culturing for 5 hours, further adding 1.5 mL of medium and subsequently culturing for 5 days. […] The culture supernatant after 5 days was recovered and a plaque assay was carried out to isolate single plaques. These were then infected into Sf-9 cells and the resulting culture supernatant was designated as Passage 1 (1−3×10^11 pfu/mL). Passage 1 was added to 3×10^7 Sf-9 cells to a multiplicity of infection (MOI) of 0.1 (pfu/cell), suspension culturing was carried out for 5 days using a spinner flask, and the resulting culture supernatant was designated as Passage 2 (4×10^10 pfu/mL) and used as a viral liquid for large-volume expression.
Sf-9 cells at 3×10^9 cells/200 mL were infected by adding Passage 2 to an MOI of 100 followed by addition of medium to bring to a liquid volume of 2 L and further culturing for 3 days. After recovering the cells by centrifugation and washing three times with PBS, the cells were suspended in 100 mL of Lysis Buffer (20 mmol/L HEPES-HCl (pH 7.2), 5 mmol/L EDTA, 3 mmol/L phenylmethylsulfonyl fluoride (PMSF)). After lysing the cells by ultrasonic treatment at low temperature, the supernatant was recovered by centrifuging (45,000×g, 15 minutes) (sup1). NaCl was added to the resulting supernatant to a final concentration of 250 mmol/L followed by ultracentrifugation (300,000×g, 60 minutes) and using the subsequent supernatant as a crude cell extract (sup2).
Purification was carried out with reference to the literature (Benovic, J. L., Methods Enzymol. 1991; 200: 351-362; Kim, C. M. et al., Receptor 1993; 3: 39-55; Sohlemann, P. et al., FEBS Letters 1993; 324: 59-62). The crude cell extract was accurately brought to a volume of 400 mL with Buffer C (20 mmol/L HEPES-HCl (pH 7.2), 5 mmol/L EDTA, 0.02 vol % Triton X-100) followed by loading onto a 50 mL SP-Sepharose FF (Amersham Pharmacia Biotech) column equilibrated with Buffer C. […] ETA was carried out on each fraction using anti-GRK2 antibody (Santa-Cruz Cat. No. SC-562) and the positive fractions were collected (GRK2=βARK1). This was then diluted three-fold with Buffer C and loaded on a 5 mL HiTrap Heparin column (Amersham Pharmacia Biotech) column equilibrated with Buffer C. After washing the column with Wash Buffer (100 mmol/L NaCl, Buffer C), the column was eluted with an NaCl concentration gradient (100 to 600 mmol/L NaCl for 100 minutes, flow rate: 1 mL/min). The positive fractions as determined by ETA were collected and stored in a freezer at −80° C.
A synthetic peptide having an amino acid sequence of biotinated-[…] was used in accordance with a previous report (Chen, C. Y. et al., J. Biol. Chem. 1993; 268: 7825-7831). This synthetic peptide can also be synthesized with reference to known synthesis methods (for example, Chen, C. Y. et al., J. Biol. Chem. 1993; 268: 7825-7831, Biochemistry 1991; 30: 5118-5125). 2 μl of a DMSO solution in which the test compound was diluted to as to be […] the final concentration was dispensed into a 96-well plate (round bottom) (Falcon 351190) (final concentration: 4 vol % DMSO). […]

CDK3/Cyclin E complex = target: T2, CDK3/Cyclin E complex (Homo sapiens, UniProt Q00526); test: In vitro kinase assay, CDK3/Cyclin E complex; format: biochemical; conditions: recombinant protein (Upstate); read-out: CDK3/cyclinE IC50
T2 construct: purchased Upstate Inc. 14-487
T2 sequence (Q00526 whole entry): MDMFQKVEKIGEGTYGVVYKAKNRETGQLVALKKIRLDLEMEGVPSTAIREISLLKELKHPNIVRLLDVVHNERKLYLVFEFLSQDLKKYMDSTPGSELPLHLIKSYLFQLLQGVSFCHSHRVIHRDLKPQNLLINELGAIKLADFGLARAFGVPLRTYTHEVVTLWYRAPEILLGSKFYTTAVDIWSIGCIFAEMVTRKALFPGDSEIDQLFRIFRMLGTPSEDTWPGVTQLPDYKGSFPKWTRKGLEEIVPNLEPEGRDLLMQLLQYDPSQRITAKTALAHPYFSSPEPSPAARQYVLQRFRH
T2 sequence (P24864 whole entry partner): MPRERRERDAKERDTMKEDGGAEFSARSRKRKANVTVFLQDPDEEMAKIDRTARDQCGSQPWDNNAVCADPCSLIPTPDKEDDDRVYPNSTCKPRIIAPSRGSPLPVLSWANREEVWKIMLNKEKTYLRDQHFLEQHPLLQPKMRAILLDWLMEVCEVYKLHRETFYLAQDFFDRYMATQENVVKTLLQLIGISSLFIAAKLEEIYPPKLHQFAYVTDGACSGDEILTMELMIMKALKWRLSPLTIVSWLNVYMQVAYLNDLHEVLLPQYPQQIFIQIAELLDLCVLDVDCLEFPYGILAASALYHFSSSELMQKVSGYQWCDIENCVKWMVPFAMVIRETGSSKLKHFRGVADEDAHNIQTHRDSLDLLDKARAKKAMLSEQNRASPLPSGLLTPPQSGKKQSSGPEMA
Procedure: Inhibitory activity against Aurora A, CDK1/Cyclin B complex, CDK2/Cyclin E complex and CDK3/Cyclin E complex were measured by in vitro kinase assay using recombinant proteins.

Compound | IC50 (recombinant human βARK1) | IC50 (CDK3/Cyclin E complex)
CC(C)(Nc1ccc(Cl)c(C(=O)NCCCC(=O)O)c1)C(=O)Nc1nc2c(C(F)(F)F)cc3[nH]ncc3c2s1 [compound 144] | 7.7 nM | 180 nM
O=C(CNc1ccc(Cl)c(O)c1)Nc1nc2ccc3[nH]ncc3c2s1 [compound 6] | 4 nM | 28 nM
CC(C)(Nc1cccc(O)c1)C(=O)Nc1nc2ccc3[nH]ncc3c2s1 [compound 33] | 7.8 nM | 33 nM
CCC(=O)Nc1cc(NC(C)(C)C(=O)Nc2nc3ccc4[nH]ncc4c3s2)ccc1Cl [compound 129] | 3.9 nM | 103 nM
CCNC(=O)c1cc(NC(C)(C)C(=O)Nc2nc3c(C(F)(F)F)cc4[nH]ncc4c3s2)ccc1F [compound 58] | 6.4 nM | 47 nM
CC(=O)Nc1cc(NC(C)(C)C(=O)Nc2nc3c(C(F)(F)F)cc4[nH]ncc4c3s2)ccc1Cl [compound 53] | 2 nM | 45 nM
CC(C)(Nc1ccc(Cl)cc1)C(=O)Nc1nc2ccc3[nH]ncc3c2s1 [compound 35] | 8.8 nM | 80 nM
CCNC(=O)c1cc(NC(C)(C)C(=O)Nc2nc3c(C(F)(F)F)cc4[nH]ncc4c3s2)ccc1Cl [compound 60] | 4.5 nM | 16 nM
CC(=O)Nc1cc(NC2(C(=O)Nc3nc4ccc5[nH]ncc5c4s3)CC2)ccc1F [compound 120] | 3.7 nM | 105 nM
CCC(=O)Nc1cc(NC2(C(=O)Nc3nc4ccc5[nH]ncc5c4s3)CC2)ccc1F [compound 121] | 4.6 nM | 125 nM
CC(C)(Nc1cccc(S(N)(=O)=O)c1)C(=O)Nc1nc2c(C(F)(F)F)cc3[nH]ncc3c2s1 [compound 82] | 9.3 nM | 5.9 nM
CC(C)(Nc1ccc(Cl)c(O)c1)C(=O)Nc1nc2c(C(F)(F)F)cc3[nH]ncc3c2s1 [compound 95] | 8.7 nM | 22 nM
CCOC(=O)c1cc(NC2(C(=O)Nc3nc4ccc5[nH]ncc5c4s3)CC2)ccc1Cl [compound 118] | 8.7 nM | 169 nM
CC(C)(Nc1ccc(Cl)c(C(=O)NC2CC2)c1)C(=O)Nc1nc2c(C(F)(F)F)cc3[nH]ncc3c2s1 [compound 75] | 8.8 nM | 41 nM
CC(C)(Nc1ccc(Cl)c(C(=O)NCC(N)=O)c1)C(=O)Nc1nc2c(C(F)(F)F)cc3[nH]ncc3c2s1 [compound 85] | 9.9 nM | 0.6 nM
CC(=O)Nc1cc(NC(C)(C)C(=O)Nc2nc3ccc4[nH]ncc4c3s2)ccc1Cl [compound 128] | 2.8 nM | 61 nM
CNC(=O)c1cc(NC2(C(=O)Nc3nc4ccc5[nH]ncc5c4s3)CC2)ccc1Cl [compound 126] | 7.5 nM | 38 nM
O=C(Nc1nc2ccc3[nH]ncc3c2s1)C1(Nc2ccc(Cl)cc2)CC1 [compound 117] | 3.9 nM | 44 nM
CNC(=O)c1cc(NC(C)(C)C(=O)Nc2nc3c(C(F)(F)F)cc4[nH]ncc4c3s2)ccc1Cl [compound 55] | 6.3 nM | 23 nM
O=C(Nc1nc2ccc3[nH]ncc3c2s1)C(CO)Nc1ccc(Cl)cc1 (stereo not shown) [compound 132] | 7.7 nM | 29 nM
CC(=O)Nc1cc(NCC(=O)Nc2nc3ccc4[nH]ncc4c3s2)ccc1Cl [compound 16] | 8.3 nM | 50 nM
CC(=O)Nc1cc(NC(C)(C)C(=O)Nc2nc3c(C(F)(F)F)cc4[nH]ncc4c3s2)ccc1F [compound 81] | 8.3 nM | 55 nM
CC(C)(Nc1ccc(Cl)c(C(N)=O)c1)C(=O)Nc1nc2c(C(F)(F)F)cc3[nH]ncc3c2s1 [compound 135] | 3.2 nM | 23 nM
